{
  "source": "paper PMC11154717",
  "about": "“Evaluation of Novel Spiro-pyrrolopyridazine Derivatives as Anticancer Compounds: In Vitro Selective Cytotoxicity, Induction of Apoptosis, EGFR Inhibitory Activity, and Molecular Docking Analysis” (ACS Omega, 2024)",
  "key": {"[1]": {"system": "nontumorigenic HEK-293 cells", "test": "XTT cell viability assay, HEK-293", "format": "cell-based, human", "conditions": "Homo sapiens, HEK293, 72 h", "method": "(§1) Human breast cancer (MCF-7), human lung cancer (H69AR), and human prostate cancer (PC-3) human nontumorigenic HEK-293 cells were obtained from the Health Protection Agency (UK) and Interlab Cell Line Collection (ICLC, Italy). Cells were maintained in RPMI medium (Sigma) containing 10% heat-inactivated fetal bovine serum, 1% penicillin, and 1% L-glutamine in a 37° humidified CO2 incubator.\n(§2) XTT (2,3-bis(2-methoxy-4-nitro-5-sulfophenyl)-2H-tetrazolium-5-carboxanilide) cell viability test was used to determine the cytotoxic activities of SPPs, which were dissolved in dimethyl sulfoxide (DMSO). Cells were seeded in 96-well plates at a density of 10^4/well and treated with increasing concentrations of SPP (1–250 μM) for 24, 48, and 72 h. After the incubation period, 100 μL of XTT was added to all experimental wells, and 96-well plates were incubated at 37 °C for 4 h. After the color change was observed, the absorbance values of the wells were recorded at 570 nm in the microplate reader (Tecan). The IC50 values for all synthesized compounds, representing the concentration needed to inhibit 50% of cancer cell proliferation, were determined using Biosoft CalcuSyn 2.1 software.[13] The following formula was used to calculate selectivity indexes (SIs), which represent the cytotoxic selectivity of SPPs against cancer cells and normal cells (HEK-293): […]"}, "[2]": {"system": "MCF-7 breast cancer cells", "test": "XTT cell viability assay, MCF-7", "format": "cell-based, human", "method": "as §1, §2"}, "[3]": {"system": "H69AR lung cancer cells", "test": "XTT cell viability assay, H69AR", "format": "cell-based, human", "method": "as §1, §2"}, "[4]": {"system": "PC-3 prostate cancer cells", "test": "XTT cell viability assay, PC-3", "format": "cell-based, human", "method": "as §1, §2"}, "[5]": {"system": "MCF-7 breast cancer cells", "test": "Annexin V/PI flow cytometric detection of apoptosis, MCF-7", "format": "cell-based, human", "conditions": "MCF-7, treated at IC50, 72 h", "source_text": "(§3) During apoptosis, PS translocates from the inner to outer regions of the plasma membrane, making it a valuable marker for apoptosis identification. Annexin V specifically attaches to PS present on the surface of apoptotic cells. To differentiate between apoptotic and viable cells with intact membranes, a secondary dye such as […] (PI) is employed. By assessing fluorescence patterns, viable cells (annexin V- and PI-) and apoptotic cells (annexin V+ and PI+) can be distinguished, providing insights into their respective percentages. We used FITC Annexin V Apoptosis Detection Kit I (BD Pharmingen).[15] […] Subsequently, cells were washed with cold PBS, resuspended in […] of 1× Binding Buffer, and stained with 5 μL of Annexin V FITC and 5 μL of PI. After vortexing, the solution was incubated at room temperature (25 °C) for 15 min in the dark. At the end of the incubation, 400 μL of 1× Binding Buffer was added to each sample, and apoptosis was assessed using flow cytometry (BD Accuri C6 Flow Cytometer)."}, "[6]": {"system": "H69AR lung cancer cells", "test": "Annexin V/PI flow cytometric detection of apoptosis, H69AR", "format": "cell-based, human", "conditions": "treated at IC50, 72 h", "source_text": "as §3"}, "[7]": {"system": "PC-3 prostate cancer cells", "test": "Annexin V/PI flow cytometric detection of apoptosis, PC-3", "format": "cell-based, human", "conditions": "PC-3, treated at IC50, 72 h", "source_text": "as §3"}, "[8]": {"system": "Bcl-2", "test": "Western blot, Bcl-2 protein level", "format": "cell-based, human", "method": "(§4) For the extraction of total proteins, the M-PER Mammalian Protein Extraction Reagent from Thermo Fisher was utilized. Specifically, cells were treated with 250 μL of the extraction reagent and incubated at room temperature for 10 min with gentle shaking at 300 rpm. After this step, the cell suspension underwent centrifugation at 14,000g for 10 min, and the resulting supernatant was collected. Determination of the protein concentration was carried out using the Bradford method. Following this, protein separation was accomplished through SDS polyacrylamide gel electrophoresis, followed by transfer to nitrocellulose membranes. Post transfer, the membranes underwent blocking with 5% nonfat dry milk for 1 h and were subjected to three washes with Tris-buffered saline (TBS). Incubation with primary antibodies (Bcl-2: Anti-Bcl-2 antibody [ab196495, Abcam]; Bax: Anti-Bax antibody [ab216494, Abcam]; cytochrome c: Anticytochrome c antibody [ab4051]; EGFR: Anti-EGFR antibody [ab32077]) occurred overnight at 4 °C. β-Actin served as the loading control. After the washing steps, the membranes were exposed to secondary antibodies for 1 h at room temperature (1:1000 dilution). Visualization of protein bands was performed using the Kodak Gel Logic 1500 imaging system, and quantification was carried out using ImageJ software.[16]"}, "[9]": {"system": "Bax", "test": "Western blot, Bax protein level", "format": "cell-based, human", "method": "as §4"}, "[10]": {"system": "cytochrome c", "test": "Western blot, cytochrome c protein level", "format": "cell-based, human", "method": "as §4"}, "[11]": {"target": "EGFR (Homo sapiens, UniProt P00533)", "sequence (P00533 25-1210)": "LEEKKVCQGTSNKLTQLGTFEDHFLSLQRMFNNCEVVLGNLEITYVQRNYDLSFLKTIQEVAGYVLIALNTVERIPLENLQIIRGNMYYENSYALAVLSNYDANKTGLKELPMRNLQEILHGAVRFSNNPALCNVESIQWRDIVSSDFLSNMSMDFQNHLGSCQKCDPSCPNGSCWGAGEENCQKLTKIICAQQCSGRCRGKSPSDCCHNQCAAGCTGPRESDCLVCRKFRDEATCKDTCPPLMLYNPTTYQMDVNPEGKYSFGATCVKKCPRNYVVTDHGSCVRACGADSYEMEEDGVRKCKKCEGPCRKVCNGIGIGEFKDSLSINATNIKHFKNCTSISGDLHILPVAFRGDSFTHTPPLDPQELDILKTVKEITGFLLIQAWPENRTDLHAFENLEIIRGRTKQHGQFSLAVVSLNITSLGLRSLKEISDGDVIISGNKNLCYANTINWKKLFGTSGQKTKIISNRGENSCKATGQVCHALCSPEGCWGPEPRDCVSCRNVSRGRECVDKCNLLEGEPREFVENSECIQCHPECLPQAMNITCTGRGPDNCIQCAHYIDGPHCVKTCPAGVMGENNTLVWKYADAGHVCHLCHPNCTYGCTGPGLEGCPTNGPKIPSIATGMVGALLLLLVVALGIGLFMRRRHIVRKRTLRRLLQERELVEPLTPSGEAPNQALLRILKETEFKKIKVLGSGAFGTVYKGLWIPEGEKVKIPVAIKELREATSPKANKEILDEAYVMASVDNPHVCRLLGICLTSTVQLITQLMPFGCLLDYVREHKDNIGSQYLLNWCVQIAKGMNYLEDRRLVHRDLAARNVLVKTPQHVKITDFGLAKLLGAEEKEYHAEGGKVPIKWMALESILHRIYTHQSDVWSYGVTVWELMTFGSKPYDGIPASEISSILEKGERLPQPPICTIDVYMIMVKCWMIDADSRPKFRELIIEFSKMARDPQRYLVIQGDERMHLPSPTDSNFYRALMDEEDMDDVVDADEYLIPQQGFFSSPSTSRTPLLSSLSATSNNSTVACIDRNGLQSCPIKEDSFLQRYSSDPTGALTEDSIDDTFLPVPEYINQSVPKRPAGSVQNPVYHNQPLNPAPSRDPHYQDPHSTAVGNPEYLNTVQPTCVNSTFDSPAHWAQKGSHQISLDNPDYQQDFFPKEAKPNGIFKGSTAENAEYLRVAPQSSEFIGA", "test": "EGFR kinase inhibitory assay (HTRF)", "format": "biochemical", "conditions": "read-out: EGFR kinase inhibition IC50", "method": "The inhibitory effects of the target compounds on various EGFR kinases were evaluated through a well-established homogeneous time-resolved fluorescence (HTRF) method-based assay, utilizing the HTRF KinEASE-TK kit (cat #62TK0PEC, Cisbio).[17] SPP10 underwent screening at progressively diluted concentrations in the presence of 1% dimethyl sulfoxide (DMSO), preceded by a 5 min preincubation of the kinase and compounds. […] Following a 1 h plate incubation, readings were taken on a microplate reader using standard HTRF settings. IC50 values were determined using GraphPad Prism 5.0 software. Each reaction was carried out in duplicate, and a minimum of three independent determinations were performed. The data were analyzed using GraphPad Prism."}, "[12]": {"target": "EGFRT790M (Homo sapiens, UniProt P00533, T790M)", "sequence (P00533 25-1210 T790M)": "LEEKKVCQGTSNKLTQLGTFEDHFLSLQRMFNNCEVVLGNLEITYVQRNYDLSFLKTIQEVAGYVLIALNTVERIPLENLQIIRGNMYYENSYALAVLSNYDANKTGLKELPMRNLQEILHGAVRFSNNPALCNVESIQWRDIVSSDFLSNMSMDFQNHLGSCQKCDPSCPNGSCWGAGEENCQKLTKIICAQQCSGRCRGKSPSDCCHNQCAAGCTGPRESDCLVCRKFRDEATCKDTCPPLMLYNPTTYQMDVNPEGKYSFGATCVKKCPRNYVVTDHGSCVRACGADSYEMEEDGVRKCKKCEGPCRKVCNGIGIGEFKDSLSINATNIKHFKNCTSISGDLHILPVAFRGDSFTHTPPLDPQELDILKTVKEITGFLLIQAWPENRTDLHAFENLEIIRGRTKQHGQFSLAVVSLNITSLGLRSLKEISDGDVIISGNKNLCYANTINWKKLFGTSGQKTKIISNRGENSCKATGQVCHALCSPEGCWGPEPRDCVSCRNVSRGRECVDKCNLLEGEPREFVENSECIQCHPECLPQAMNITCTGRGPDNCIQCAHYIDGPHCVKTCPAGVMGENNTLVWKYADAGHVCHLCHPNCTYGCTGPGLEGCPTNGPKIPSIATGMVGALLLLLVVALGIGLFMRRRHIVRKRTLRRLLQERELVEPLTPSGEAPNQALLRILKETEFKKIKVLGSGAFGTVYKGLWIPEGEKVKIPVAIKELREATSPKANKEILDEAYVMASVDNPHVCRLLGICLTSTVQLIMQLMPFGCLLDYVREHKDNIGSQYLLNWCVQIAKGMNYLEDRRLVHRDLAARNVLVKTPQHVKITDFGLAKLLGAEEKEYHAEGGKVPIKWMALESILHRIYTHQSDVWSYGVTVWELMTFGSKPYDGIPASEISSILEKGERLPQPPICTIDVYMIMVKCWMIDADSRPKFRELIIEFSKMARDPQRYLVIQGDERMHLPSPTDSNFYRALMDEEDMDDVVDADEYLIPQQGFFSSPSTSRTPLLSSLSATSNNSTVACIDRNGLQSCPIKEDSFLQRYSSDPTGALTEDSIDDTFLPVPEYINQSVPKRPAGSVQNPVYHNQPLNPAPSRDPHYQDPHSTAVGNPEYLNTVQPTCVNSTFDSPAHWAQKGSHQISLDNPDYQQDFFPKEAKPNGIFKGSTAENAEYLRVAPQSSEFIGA", "test": "EGFRT790M kinase inhibitory assay (HTRF)", "format": "biochemical", "conditions": "read-out: EGFRT790M kinase inhibition IC50", "method": "The inhibitory effects of the target compounds on various EGFR kinases were evaluated through a well-established homogeneous time-resolved fluorescence (HTRF) method-based assay, utilizing the HTRF KinEASE-TK kit (cat #62TK0PEC, Cisbio).[17] SPP10 underwent screening at progressively diluted concentrations in the presence of 1% dimethyl sulfoxide (DMSO), preceded by a 5 min preincubation of the kinase and compounds. Initiation of all reactions occurred by adding ATP and TK-substrate-biotin, followed by a 60 min incubation at room temperature and subsequent quenching with a stop buffer containing 62.5 nM Strep-XL665 and TK antibody (Ab)-Cryptate. Following a 1 h plate incubation, readings were taken on a microplate reader using standard HTRF settings. IC50 values were determined using GraphPad Prism 5.0 software. Each reaction was carried out in duplicate, and a minimum of three independent determinations were performed. The data were analyzed using GraphPad Prism."}, "[13]": {"system": "EGFRWT", "test": "Western blot, EGFR protein", "format": "cell-based, human", "conditions": "72 h, MCF-7, H69AR and PC-3 cells", "method": "as §4"}},
  "note": "Where two headings read alike, the source gives them in different places.",
  "data": [
    {"compound": "c1ccc(-c2nnc(-c3ccccc3)c3c2C(c2ccsc2)=NC32CCCCC2)cc1", "note": "[SPP10]", "values": [
      {"measurement": "IC50", "setting": "[1]", "result": "26.8 ± 0.4", "unit": "µM"},
      {"measurement": "IC50", "setting": "[2]; Homo sapiens, MCF7, XTT, 72 h", "result": "2310 ± 300", "unit": "nM"},
      {"measurement": "selectivity index (SI) MCF-7", "setting": "[2]; versus HEK-293", "result": 11.6},
      {"measurement": "IC50", "setting": "[3]; Homo sapiens, H69AR, XTT, 72 h", "result": "3.16 ± 0.8", "unit": "µM"},
      {"measurement": "selectivity index (SI) H69AR", "setting": "[3]; versus HEK-293", "result": 8.48},
      {"measurement": "IC50", "setting": "[4]; Homo sapiens, XTT, 72 h", "result": "4.2 ± 0.2", "unit": "µM"},
      {"measurement": "selectivity index (SI) PC-3", "setting": "[4]; versus HEK-293", "result": 6.38},
      {"measurement": "percentage of early apoptotic cells", "setting": "[5]", "result": 28.7, "unit": "%"},
      {"measurement": "percentage of late apoptotic cells", "setting": "[5]", "result": 59.3, "unit": "%"},
      {"measurement": "percentage of early apoptotic cells", "setting": "[6]", "result": 25.6, "unit": "%"},
      {"measurement": "percentage of late apoptotic cells", "setting": "[6]", "result": 61.2, "unit": "%"},
      {"measurement": "percentage of early apoptotic cells", "setting": "[7]", "result": 21.8, "unit": "%"},
      {"measurement": "percentage of late apoptotic cells", "setting": "[7]", "result": 64.9, "unit": "%"},
      {"measurement": "Bcl-2 protein level inhibited by", "setting": "[8]; H69AR, IC50 of SPP10, 72 h", "result": 2.6, "unit": "fold"},
      {"measurement": "Bcl-2 protein level inhibited by", "setting": "[8]; MCF-7, IC50 of SPP10, 72 h", "result": 2.3, "unit": "fold"},
      {"measurement": "Bcl-2 protein level inhibited by", "setting": "[8]; PC-3, IC50 of SPP10, 72 h", "result": 3.2, "unit": "fold"},
      {"measurement": "Bax protein level induced by", "setting": "[9]; H69AR, IC50 of SPP10, 72 h", "result": 4.1, "unit": "fold"},
      {"measurement": "Bax protein level induced by", "setting": "[9]; MCF-7, IC50 of SPP10, 72 h", "result": 3.4, "unit": "fold"},
      {"measurement": "Bax protein level induced by", "setting": "[9]; PC-3, IC50 of SPP10, 72 h", "result": 5.2, "unit": "fold"},
      {"measurement": "Cytochrome c level induced by", "setting": "[10]; H69AR, IC50 of SPP10, 72 h", "result": 3.6, "unit": "fold"},
      {"measurement": "Cytochrome c level induced by", "setting": "[10]; MCF-7, IC50 of SPP10, 72 h", "result": 3.8, "unit": "fold"},
      {"measurement": "Cytochrome c level induced by", "setting": "[10]; PC-3, IC50 of SPP10, 72 h", "result": 4.4, "unit": "fold"},
      {"measurement": "IC50", "setting": "[11]; in H69AR cells", "result": 200, "unit": "nM"},
      {"measurement": "IC50", "setting": "[11]; in MCF-7 cells", "result": "400 ± 120", "unit": "nM"},
      {"measurement": "IC50", "setting": "[11]; in PC-3 cells", "result": "420 ± 800", "unit": "nM"},
      {"measurement": "IC50", "setting": "[11]; span in cancer cells", "result": "200 to 420", "unit": "nM"},
      {"measurement": "IC50", "setting": "[12]; in H69AR cells", "result": "250 ± 700", "unit": "nM"},
      {"measurement": "IC50", "setting": "[12]; in MCF-7 cells", "result": "370 ± 200", "unit": "nM"},
      {"measurement": "IC50", "setting": "[12]; in PC-3 cells", "result": "390 ± 200", "unit": "nM"},
      {"measurement": "inhibition of EGFRWT protein (western blot)", "setting": "[13]", "result": "concentration-dependent inhibition"}
    ]}
  ]
}
